The source of these data is PMC4661079 (Bioorganic & medicinal chemistry, 2015).

The target of one test is T1, TAK1 (Homo sapiens, UniProt O43318).
T1 sequence (O43318 1-303 limits assumed): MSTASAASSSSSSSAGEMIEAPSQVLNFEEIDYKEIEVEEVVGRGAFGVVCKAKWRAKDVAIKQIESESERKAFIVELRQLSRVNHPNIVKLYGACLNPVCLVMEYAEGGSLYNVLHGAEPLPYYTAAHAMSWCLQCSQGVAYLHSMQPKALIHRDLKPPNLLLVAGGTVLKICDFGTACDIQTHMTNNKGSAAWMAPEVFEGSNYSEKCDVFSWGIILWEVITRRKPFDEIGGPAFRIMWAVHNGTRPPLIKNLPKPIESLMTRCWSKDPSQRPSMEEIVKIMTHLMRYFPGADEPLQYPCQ
T1 sequence (Q15750 437-504 partner limits assumed): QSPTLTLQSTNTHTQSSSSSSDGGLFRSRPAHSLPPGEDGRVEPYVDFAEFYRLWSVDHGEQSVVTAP
Nature of the test: in vitro TAK1 inhibition assay. It is filed as biochemical. The note with it: for TAK1 inhibitory activity, result in words: in vitro TAK1 inhibition.

The test system of another test is 85 kinases. To be noted: 1 μM concentration; ref 14 (Wu et al.); cited from earlier work.

As to `COc1c(Br)c(O)c2c(c1Br)/C=C/C[C@H](O)[C@H](O)C(=O)/C=C\C[C@H](C)OC2=O` [Compound 14, (3S,5Z,8S,9S,11E)-13,15-Dibromo-8,9,16-trihydroxy-14methoxy-3-methyl-3,4,9,10-tetrahydro-1H-benzo[c][1]oxacyclotetradecine-1,7(8H)-dione], the “TAK1 inhibitory activity, result in words” value on TAK1 was “least active”.
The same measure, in the same setting: to `COc1cc(O)c2c(c1)/C=C/C[C@H](O)[C@H](O)[C@@H](O)/C=C/C[C@H](C)OC2=O` [Compound 3, zeaenol] belongs “loss of activity”.
Turning to `COc1cc(O)c2c(c1)/C=C/C[C@@H]1OC(C)(C)O[C@@H]1C(=O)/C=C\C[C@H](C)OC2=O` [Compound 16, (3aS,5Z,8S,15E,17aS)-11-Hydroxy-13-methoxy-2,2,8-trimethyl-7,8,17,17a-tetrahydro-4H-benzo[c][1,3]dioxolo[4,5-h][1]oxacyclotetradecine-4,10(3aH)-dione], the “reduction of TAK1 inhibitory activity relative to 1” value at TAK1 (compared with 1) is “more than 30 fold”.
For the compound `COc1cc(O)c2c(c1Br)/C=C/C[C@H](O)[C@H](O)C(=O)/C=C\C[C@H](C)OC2=O` [Compound 13, (3S,5Z,8S,9S,11E)-13-Bromo-8,9,16-trihydroxy-14-methoxy-3-methyl-3,4,9,10-tetrahydro-1H-benzo[c][1]oxacyclotetradecine-1,7(8H)-dione], the “times less active than difluoro derivative 11” value at TAK1 (TAK1 inhibition, compared with 11) was determined as 5 times.
As to `COc1cc(O)c2c(c1)/C=C/C[C@H](O)[C@H](O)C(=O)/C=C\C[C@H](C)OC2=O` [Compound 1, (5Z)-7-oxozeaenol], in the test on 85 kinases, the “number of kinases with at least 50% inhibition out of 85 kinases tested” value is reported as 12.
Broadly, the IC50 is the midpoint of a concentration-inhibition curve. Lower therefore signals greater potency in that assay. `COC1=CC(=O)C2=C(/C=C/C[C@H](O)[C@H](O)C(=O)/C=C\C[C@H](C)OC2=O)C1(F)F` [Compound 11, (3S,5Z,8S,9S,11E)-13,13-Difluoro-8,9-dihydroxy-14-methoxy-3-methyl-3,4,9,10-tetrahydro-1H benzo[c][1]oxacyclotetradecine-1,7,16(8H,13H)-trione]: at TAK1, the IC50 was found to be 77 nM and the “TAK1 inhibitory activity, result in words” value is “statistically equipotent to 1”.
Regarding `COc1cc2c(c(O)c1Br)C(=O)O[C@@H](C)C/C=C\C(=O)[C@@H](O)[C@@H](O)C/C=C/2` [Compound 12, (3S,5Z,8S,9S,11E)-15-Bromo-8,9,16-trihydroxy-14-methoxy-3-methyl-3,4,9,10-tetrahydro-1H-benzo[c][1]oxacyclotetradecine-1,7(8H)-dione], the “TAK1 inhibitory activity, result in words” value on TAK1 is “significantly less active”.
Turning to `COc1cc(O)c2c(c1)[C@H]1O[C@@H]1C[C@H](O)[C@H](O)C(=O)CCC[C@H](C)OC2=O` [Compound 5, dihydrohypothemycin], at TAK1, the “TAK1 inhibitory activity, result in words” value is listed as “loss of activity”.
As for `COc1cc(O)cc2c1C(=O)O[C@@H](C)CCCCC/C=C/C(=O)C2` [Compound 8, greensborone C], at TAK1, the “TAK1 inhibitory activity, result in words” value was “diminished activity”.
In the case of `CC=C/C=C\C(=O)[C@@H](O)[C@@H](O)C/C=C/c1cc(OC)cc(OC)c1C(=O)OC` (stereo in doubt) [Compound 10, Methyl 2-((1E,4S,5S,7Z,9Z)-4,5-dihydroxy-6-oxoundeca-1,7,9-trien-1-yl)-4,6-dimethoxybenzoate], the “TAK1 inhibitory activity, result in words” value on TAK1 is “inability”.
For `COc1cc(O)c2c(c1)/C=C/C[C@H](O)[C@H](O)C(=O)CCC[C@H](C)OC2=O` [Compound 7, LL-Z164-1], the “TAK1 inhibitory activity, result in words” value on TAK1 was “loss of activity”.
